Reference: patent US8956999B2, “Herbicides” (Syngenta Limited, priority 2007, dated 2015)

Columns and labels:
Format in all cases: in vivo
[1] = test system: Solanum nigrum (SOLNI); assay: Example B pre-emergence herbicidal test, glasshouse; conditions: rate 1000 g/ha, evaluated after 13 days, 100=total damage to plant, 0=no damage to plant
Protocol: (§1) Seeds of a variety of test species were sown in standard soil in pots. After cultivation for one day (pre-emergence) or after 8 days cultivation (post-emergence) under controlled conditions in a glasshouse (at 24/16° C., day/night; 14 hours light; 65% humidity), the plants were sprayed with an aqueous spray solution derived from the formulation of the technical active ingredient in acetone/water (50:50) solution containing 0.5% Tween 20 (polyoxyethelyene sorbitan monolaurate, CAS RN 9005-64-5). The test plants were then grown in a glasshouse under controlled conditions in a glasshouse (at 24/16° C., day/night; 14 hours light; 65% humidity) and watered twice daily. After 13 days for pre and post-emergence, the test was evaluated (100=total damage to plant; 0=no damage to plant). Test Plants: Alopecurus myosuroides (ALOMY), Avena fatua (AVEFA), Setaria faberi (SETFA), Echinochloa crus-galli (ECHCG), Solanum nigrum (SOLNI) and Amaranthus retoflexus (AMARE)

[2] = test system: Amaranthus retoflexus (AMARE); assay: as above; conditions: Amaranthus retroflexus, 312 h, evaluated after 13 days, 100=total damage to plant, 0=no damage to plant; for pest or weed control at 1000 g/ha: rate 1000 g/ha
Protocol: as §1

[3] = test system: Echinochloa crus-galli (ECHCG); assay: as above; conditions: evaluated after 13 days, 100=total damage to plant, 0=no damage to plant; for Pre-Emergence Activity ECHCG: rate 1000 g/ha
Protocol: as §1

[4] = test system: Alopecurus myosuroides (ALOMY); assay: as above; conditions: 312 h, evaluated after 13 days, 100=total damage to plant, 0=no damage to plant; for pest or weed control at 1000 g/ha: rate 1000 g/ha
Protocol: as §1

[5] = test system: Avena fatua (AVEFA); assay: as above; conditions: 312 h, evaluated after 13 days, 100=total damage to plant, 0=no damage to plant; for pest or weed control at 1000 g/ha: rate 1000 g/ha
Protocol: as §1

[6] = test system: Setaria faberi (SETFA); assay: as above; conditions: evaluated after 13 days, 100=total damage to plant, 0=no damage to plant; for Pre-Emergence Activity SETFA: rate 1000 g/ha
Protocol: as §1

[7] = test system: Solanum nigrum (SOLNI); assay: Example B post-emergence herbicidal test, glasshouse; conditions: 312 h, rate 1000 g/ha, evaluated after 13 days, read-out: Post-Emergence Activity SOLNI (100=total damage to plant; 0=no damage to plant)
Protocol: as §1

[8] = test system: Amaranthus retoflexus (AMARE); assay: as above; conditions: Amaranthus retroflexus, 312 h, evaluated after 13 days, read-out: Post-Emergence Activity AMARE (100=total damage to plant; 0=no damage to plant); for pest or weed control at 1000 g/ha: rate 1000 g/ha
Protocol: as §1

[9] = test system: Echinochloa crus-galli (ECHCG); assay: as above; conditions: 312 h, evaluated after 13 days; for pest or weed control at 1000 g/ha: rate 1000 g/ha, read-out: Post-Emergence Activity ECHCG (100=total damage to plant; 0=no damage to plant)
Protocol: as §1

[10] = test system: Alopecurus myosuroides (ALOMY); assay: as above; conditions: 312 h, evaluated after 13 days, read-out: Post-Emergence Activity ALOMY (100=total damage to plant; 0=no damage to plant); for pest or weed control at 1000 g/ha: rate 1000 g/ha
Protocol: as §1

[11] = test system: Avena fatua (AVEFA); assay: as above; conditions: 312 h, evaluated after 13 days, read-out: Post-Emergence Activity AVEFA (100=total damage to plant; 0=no damage to plant); for pest or weed control at 1000 g/ha: rate 1000 g/ha
Protocol: as §1

[12] = test system: Setaria faberi (SETFA); assay: as above; conditions: 312 h, evaluated after 13 days; for pest or weed control at 1000 g/ha: rate 1000 g/ha, read-out: Post-Emergence Activity SETFA (100=total damage to plant; 0=no damage to plant)
Protocol: as §1

SMILES | Pre-Emergence Activity SOLNI [1] | pest or weed control at 1000 g/ha [2] [%] | Pre-Emergence Activity ECHCG [3] | pest or weed control at 1000 g/ha [4] [%] | pest or weed control at 1000 g/ha [5] [%] | Pre-Emergence Activity SETFA [6] | pest or weed control at 1000 g/ha [7] [%] | pest or weed control at 1000 g/ha [8] [%] | pest or weed control at 1000 g/ha [9] [%] | pest or weed control at 1000 g/ha [10] [%] | pest or weed control at 1000 g/ha [11] [%] | pest or weed control at 1000 g/ha [12] [%] | further results
CCc1sc(-c2ccc(Cl)cc2)nc1C1=C(OC(=O)C(C)(C)C)C(C)(C)OC(C)(C)C1=O [Compound P2, 2,2-dimethylpropionic acid 4-[2-(4-chlorophenyl)-5-ethylthiazol-4-yl]-2,2,6,6-tetramethyl-5-oxo-5,6-dihydro-2H-pyran-3-yl ester] | 0 | 80 | 50 | 60 | 30 | 80 | 0 | 0 | 100 | 90 | 90 | 100 | –
Cc1sc(-c2ccc(Cl)cc2)nc1C1C(=O)C(C)(C)C(=O)C(C)(C)C1=O [Compound T1] | – | – | – | – | – | – | 0 | 0 | 90 | 90 | 80 | 90 | –
Cc1ocnc1C1C(=O)C(C)(C)C(=O)C(C)(C)C1=O [Compound T2] | 60 | 50 | 0 | 0 | 0 | 0 | 40 | 0 | 0 | 0 | 0 | 0 | –
Cc1sc(-c2ccc(F)cc2)nc1C1C(=O)C(C)(C)C(=O)C(C)(C)C1=O [Compound T8] | 0 | 0 | 0 | 30 | 20 | 0 | 20 | 0 | 70 | 40 | 0 | 80 | –
Cc1sc(-c2cc(Cl)ccc2Cl)nc1C1C(=O)C(C)(C)C(=O)C(C)(C)C1=O [Compound T10, 6-[2-(2,5-dichlorophenyl)-5-methylthiazol-4-yl]-2,2,4,4-tetramethyl-cyclohexane-1,3,5-trione] | 0 | 0 | 0 | 30 | 20 | 0 | 20 | 0 | 70 | 40 | 0 | 80 | –
Cc1sc(OCc2cnc(Br)s2)nc1C1C(=O)C(C)(C)OC(C)(C)C1=O [Compound T14] | 0 | 0 | 0 | 40 | 0 | 0 | – | – | – | – | – | – | pest or weed control at 250 g/ha ([2]; rate 250 g/ha): 0%; pest or weed control at 250 g/ha ([3]; Echinochloa crus-galli, 312 h, rate 250 g/ha, read-out: Pre-Emergence Activity ECHGG): 0%; pest or weed control at 250 g/ha ([4]; rate 250 g/ha): 0%; pest or weed control at 250 g/ha ([5]; rate 250 g/ha): 0%; pest or weed control at 250 g/ha ([6]; Setaria faberi, 312 h, rate 250 g/ha, read-out: Pre-Emergence Activity SEFTA): 50%; pest or weed control at 250 g/ha ([8]; rate 250 g/ha): 0%; pest or weed control at 250 g/ha ([9]; rate 250 g/ha, read-out: Post-Emergence Activity ECHGG (100=total damage to plant; 0=no damage to plant)): 70%; pest or weed control at 250 g/ha ([10]; rate 250 g/ha): 40%; pest or weed control at 250 g/ha ([11]; rate 250 g/ha): 0%; pest or weed control at 250 g/ha ([12]; rate 250 g/ha, read-out: Post-Emergence Activity SEFTA (100=total damage to plant; 0=no damage to plant)): 90%
